Like-named read-outs stand apart in the source and are kept apart here.
Key:
Experiment in all cases: In vitro high-throughput screen of FDA-approved drug library (CellTiter-Glo)
Type in all cases: cell-based
A673 = conditions: for inhibition at 1 µM: Homo sapiens, read-out: % Inhibition A673
Description: (§1) We screened, in parallel to the three computational approaches, an FDA-approved drug library containing 2,316 drugs (1,536 unique chemical entities). […] The drug screening study protocol employed is summarized in Supplementary Table S1.
(§2) Cells were grown to 80–90% confluence, harvested and aliquoted into 384-well plates (black μClear microplates, Greiner bio-one, Germany) at concentrations of 750–1,500 cells per well in a total volume of 25 μl/well using a Matrix Wellmate (Thermo Scientific). Cells were cultured for 72 hours in a 5% CO2 atmosphere at 37°C. Aliquots of 25 μl CellTiter-Glo® Reagent (Promega) were added directly to each well, the plates were incubated at room temperature for 20 min and the luminescence signal was measured according to the manufacturer's protocol. The measurements were made using Infinite® M200 Pro plate reader (Tecan, Switzerland). […] Data were normalized to percentage inhibition. […]
(§3) (A) Color scale for drug inhibition values. […]

Hs 919.T. = conditions: for inhibition at 1 µM: read-out: % Inhibition Hs 919.T.
Description: as §1, §2, §3

RD-ES = conditions: for inhibition at 1 µM: RD-ES, read-out: % Inhibition RD-ES
Description: as §1, §2, §3

SK-ES-1 = conditions: for inhibition at 1 µM: Homo sapiens, read-out: % Inhibition SK-ES-1
Description: as §1, §2, §3

[1] = 1 μmol/L drug, 72 hours, control cell line
[2] = SK-ES1, 1 μmol/L drug, 72 hours

Row | Compound | inhibition at 1 µM (A673; A673, 1 μmol/L drug, 72 hours) | inhibition at 1 µM (Hs 919.T.; [1]) | inhibition at 1 µM (RD-ES; 1 μmol/L drug, 72 hours) | inhibition at 1 µM (SK-ES-1; [2]) | further results
1 | Cn1cnc([N+](=O)[O-])c1Sc1ncnc2nc[nH]c12 [Azathioprine] | < 50% | < 50% | < 50% | 52% | –
2 | CN(Cc1cnc2nc(N)nc(N)c2n1)c1ccc(C(=O)N[C@@H](CCC(=O)O)C(=O)O)cc1 (racemic) [Methotrexate/Amethopterin (R,S), Methotrexate] | 89% | < 50% | 82% | < 50% | –
3 | COC(=O)Nc1nc2cc(C(=O)c3ccc(F)cc3)ccc2[nH]1 [Flubendazole] | 77% | < 50% | 86% | 86% | –
4 | CCCOc1ccc2nc(NC(=O)OC)[nH]c2c1 [Oxibendazole] | 64% | < 50% | 80% | 84% | –
5 | NNC(=O)c1ccncc1 [Isoniazid] | 56% | < 50% | < 50% | < 50% | –
6 | CCOC(=O)C1=C[C@@H](OC(CC)CC)[C@H](NC(C)=O)[C@@H](N)C1 [Oseltamivir] | 95% | < 50% | 95% | 98% | –
7 | COc1cc2c3cc1Oc1cc(ccc1O)C[C@@H]1c4c(cc(OC)c(O)c4Oc4ccc(cc4)C[C@@H]3N(C)CC2)CC[N+]1(C)C.Cl.O.O.O.O.O.[Cl-] [(+)-Tubocurarine chloride] | – | – | – | – | % Inhibition A673 (A673; 1 μmol/L drug, 72 hours): < 50%; % Inhibition Hs 919.T. (Hs 919.T.; [1]): < 50%; % Inhibition RD-ES (RD-ES; 1 μmol/L drug, 72 hours): 51%; % Inhibition SK-ES-1 (SK-ES-1; 1 μmol/L drug, 72 hours): < 50%
8 | N[C@@H](Cc1ccc(N(CCCl)CCCl)cc1)C(=O)O [Melphalan] | < 50% | < 50% | 95% | 91% | –
9 | C[C@@H]1C[C@@H]([C@H](O)CC2CC(=O)NC(=O)C2)C(=O)[C@@H](C)C1 [Cycloheximide] | 77% | < 50% | 74% | 81% | –
10 | Clc1ccccc1CN1CCc2sccc2C1 [Ticlopidine] | 66% | < 50% | < 50% | < 50% | –
11 | CC(=O)O[C@H]1C(=O)[C@@]2(C)[C@H]([C@H](OC(=O)c3ccccc3)[C@]3(O)C[C@H](OC(=O)[C@H](O)[C@@H](NC(=O)c4ccccc4)c4ccccc4)C(C)=C1C3(C)C)[C@]1(OC(C)=O)CO[C@@H]1C[C@@H]2O [Paclitaxel/Taxol, Paclitaxel] | 96% | < 50% | 97% | 96% | –
12 | CCCSc1ccc2nc(NC(=O)OC)[nH]c2c1 [Albendazole] | – | – | – | – | inhibition at 1 µM (A673; A673, 72 h): 89%; inhibition at 1 µM (Hs 919.T.; 72 h): < 50%; inhibition at 1 µM (RD-ES; 72 h): 93%; inhibition at 1 µM (SK-ES-1; SK-ES1, 72 h): 93%
13 | C[C@]12CC[C@@H]3c4ccc(O)cc4CC[C@H]3[C@@H]1CC[C@@H]2O [Estradiol] | 65% | < 50% | < 50% | < 50% | –
14 | S=c1[nH]cnc2nc[nH]c12 [Mercaptopurine] | < 50% | < 50% | < 50% | 57% | –
15 | COc1c(C)c2c(c(O)c1C/C=C(\C)CCC(=O)O)C(=O)OC2 [Mycophenolic Acid] | < 50% | < 50% | 52% | < 50% | –

From PMC5354814, “In silico and in vitro drug screening identifies new therapeutic approaches for Ewing sarcoma” (Oncotarget, 2016)
